“And” between values parts separate entries of the source, which are not always exact repeats. Equal values may be shown once. Toxic doses and inconclusive results are not listed. Rule as the data show it: active = T/C of 150% or more; inactive = T/C below 125%.
Tested on: L1210 leukemia ip in BDF1 mice, survival T/C
Experiment: NCI In Vivo Anticancer Drug Screen. Data for tumor model L1210 Leukemia (intraperitoneal) in B6D2F1 (BDF1) mice
Conditions: endpoint: mean survival time, higher = longer survival
How it was run: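 Transplanted-tumor mice were given test agent; controls received vehicle only. Survival readings from the two groups were divided (treated over control).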

[1] = dose: 100.0 mg/kg/injection, schedule: Q04DX003 (ip), vehicle: other
[2] = dose: 200.0 mg/kg/injection, schedule: Q04DX003 (ip), vehicle: other
[3] = dose: 400.0 mg/kg/injection, schedule: Q04DX003 (ip), vehicle: other
[4] = dose: 100.0 mg/kg/injection, schedule: Q01DX001 (ip), vehicle: saline with Tween-80
[5] = dose: 100.0 mg/kg/injection, schedule: Q01DX009 (ip), vehicle: saline with Tween-80
[6] = dose: 100.0 mg/kg/injection, schedule: Q01DX009 (ip), vehicle: saline
[7] = dose: 100.0 mg/kg/injection, schedule: Q04DX003 (ip), vehicle: saline
[8] = dose: 200.0 mg/kg/injection, schedule: Q01DX001 (ip), vehicle: saline with Tween-80
[9] = dose: 200.0 mg/kg/injection, schedule: Q01DX009 (ip), vehicle: saline with Tween-80
[10] = dose: 200.0 mg/kg/injection, schedule: Q01DX009 (ip), vehicle: saline
[11] = dose: 200.0 mg/kg/injection, schedule: Q04DX003 (ip), vehicle: saline
[12] = dose: 400.0 mg/kg/injection, schedule: Q01DX001 (ip), vehicle: saline with Tween-80
[13] = dose: 400.0 mg/kg/injection, schedule: Q01DX009 (ip), vehicle: saline with Tween-80
[14] = dose: 400.0 mg/kg/injection, schedule: Q01DX009 (ip), vehicle: saline
[15] = dose: 400.0 mg/kg/injection, schedule: Q04DX003 (ip), vehicle: saline
[16] = dose: 100.0 mg/kg/injection, schedule: Q01DX001 (ip), vehicle: saline
[17] = dose: 200.0 mg/kg/injection, schedule: Q01DX001 (ip), vehicle: saline
[18] = dose: 400.0 mg/kg/injection, schedule: Q01DX001 (ip), vehicle: saline
[19] = dose: 100.0 mg/kg/injection, schedule: Q01DX009 (ip), vehicle: Klucel (hydroxypropylcellulose) (HPC)
[20] = dose: 100.0 mg/kg/injection, schedule: Q04DX002 (ip), vehicle: Klucel (hydroxypropylcellulose) (HPC)
[21] = dose: 100.0 mg/kg/injection, schedule: Q04DX003 (ip), vehicle: Klucel (hydroxypropylcellulose) (HPC)
[22] = dose: 200.0 mg/kg/injection, schedule: Q01DX009 (ip), vehicle: Klucel (hydroxypropylcellulose) (HPC)
[23] = dose: 200.0 mg/kg/injection, schedule: Q04DX002 (ip), vehicle: Klucel (hydroxypropylcellulose) (HPC)
[24] = dose: 200.0 mg/kg/injection, schedule: Q04DX003 (ip), vehicle: Klucel (hydroxypropylcellulose) (HPC)
[25] = dose: 400.0 mg/kg/injection, schedule: Q01DX009 (ip), vehicle: Klucel (hydroxypropylcellulose) (HPC)
[26] = dose: 400.0 mg/kg/injection, schedule: Q04DX002 (ip), vehicle: Klucel (hydroxypropylcellulose) (HPC)
[27] = dose: 400.0 mg/kg/injection, schedule: Q04DX003 (ip), vehicle: Klucel (hydroxypropylcellulose) (HPC)

Measured: T/C

CC(CC(=O)C(F)(F)F)=NCC(C)N=C(C)CC(=O)C(F)(F)F (stereo not drawn)
inactive: dose: 100.0 mg/kg/injection, schedule: Q01DX001 (ip), vehicle: other 101 % of control | [1] 115 % of control | dose: 200.0 mg/kg/injection, schedule: Q01DX001 (ip), vehicle: other 86 % of control | [2] 105 % of control | dose: 400.0 mg/kg/injection, schedule: Q01DX001 (ip), vehicle: other 97 % of control | [3] 111 % of control

NC(N)=N/N=C/c1cc(Cl)cc(Cl)c1O
inactive: dose: 75.0 mg/kg/injection, schedule: Q01DX001 (ip), vehicle: saline 101 % of control

O=C(O)C1C2CC(O)C(C2)C1C(=O)O (stereo not drawn)
inactive: [4] 94 % of control | [5] 93 % of control | [6] 105 % of control | [7] 94 % of control | [8] 98 % of control | [9] 95 % of control | [10] 105 % of control | [11] 96 % of control | [12] 100 % of control | [13] 96 % of control | [14] 98 % of control | [15] 93 % of control

O=C(O)/C=C/c1ccc(Cl)cc1Cl
inactive: [5] 88 % of control | [9] 87 % of control

O=[N+]([O-])c1cc(Br)cc(Br)c1S(=O)(=O)O
inactive: [6] 105 % of control | [7] 103 % of control | [10] 97 % of control | [11] 110 % of control | [14] 108 % of control | [15] 108 % of control

CCOC(=O)C(CCCOC(=O)c1cc([N+](=O)[O-])cc([N+](=O)[O-])c1)C(=O)OCC
inactive: [16] 94 % of control | [6] 101 % of control | [17] 98 % of control | [10] 101 % of control | [18] 91 % of control | [14] 95 % of control

COc1ccc(Cl)cc1NC(=O)Oc1ccc2ccccc2c1
inactive: [4] 89 % of control | [5] 98 % of control and 100 % of control | dose: 100.0 mg/kg/injection, schedule: Q04DX003 (ip), vehicle: saline with Tween-80 91 % of control | [8] 100 % of control | [9] 98 % of control and 92 % of control | dose: 200.0 mg/kg/injection, schedule: Q04DX003 (ip), vehicle: saline with Tween-80 96 % of control | [12] 96 % of control | [13] 100 % of control and 91 % of control | dose: 400.0 mg/kg/injection, schedule: Q04DX003 (ip), vehicle: saline with Tween-80 103 % of control

COc1cc(N(CCCl)CCCl)ccc1C=Nc1ccc(-n2ccnc2)cc1
inactive: dose: 68.8 mg/kg/injection, schedule: Q04DX002 (ip), vehicle: Klucel (hydroxypropylcellulose) (HPC) 98 % of control | dose: 137.5 mg/kg/injection, schedule: Q04DX002 (ip), vehicle: Klucel (hydroxypropylcellulose) (HPC) 98 % of control | dose: 275.0 mg/kg/injection, schedule: Q04DX002 (ip), vehicle: Klucel (hydroxypropylcellulose) (HPC) 102 % of control

O=C(NC(=S)Nc1ccc(Cl)c(Cl)c1)c1cccc([N+](=O)[O-])c1
inactive: [19] 95 % of control | [20] 95 % of control and 97 % of control | [21] 93 % of control | [22] 95 % of control | [23] 93 % of control and 97 % of control | [24] 95 % of control | [25] 92 % of control and 94 % of control | [26] 95 % of control and 102 % of control | [27] 93 % of control

CC(=O)Nc1ccc(OC(=O)Oc2ccc(NC(C)=O)cc2)cc1
inactive: dose: 50.0 mg/kg/injection, schedule: Q01DX001 (ip), vehicle: saline 101 % of control | [16] 97 % of control | [17] 95 % of control | [18] 95 % of control

O=[N+]([O-])C1CC12c1ccccc1-c1ccccc12 (stereo not drawn)
inactive: dose: 75.0 mg/kg/injection, schedule: Q01DX001 (ip), vehicle: carboxymethylcellulose (CMC) 106 % of control | dose: 150.0 mg/kg/injection, schedule: Q01DX001 (ip), vehicle: carboxymethylcellulose (CMC) 103 % of control | dose: 300.0 mg/kg/injection, schedule: Q01DX001 (ip), vehicle: carboxymethylcellulose (CMC) 97 % of control

NC(N)=N/N=C/c1ccc(O)c(S(=O)(=O)O)c1
inactive: dose: 15.0 mg/kg/injection, schedule: Q01DX Z (ip), vehicle: saline 97 % of control | dose: 30.0 mg/kg/injection, schedule: Q01DX Z (ip), vehicle: saline 90 % of control | dose: 60.0 mg/kg/injection, schedule: Q01DX Z (ip), vehicle: saline 87 % of control | dose: 60.0 mg/kg/injection, schedule: Q01DX Z (oral), vehicle: saline 97 % of control | dose: 120.0 mg/kg/injection, schedule: Q01DX Z (ip), vehicle: saline 90 % of control | dose: 120.0 mg/kg/injection, schedule: Q01DX Z (oral), vehicle: saline 104 % of control | dose: 240.0 mg/kg/injection, schedule: Q01DX Z (oral), vehicle: saline 95 % of control | dose: 480.0 mg/kg/injection, schedule: Q01DX Z (ip), vehicle: saline 90 % of control | dose: 480.0 mg/kg/injection, schedule: Q01DX Z (oral), vehicle: saline 95 % of control

C[P+]1(C)CC=C2CCCCC21 (stereo not drawn)
inactive: dose: 12.5 mg/kg/injection, schedule: Q04DX002 (ip), vehicle: saline with Tween-80 100 % of control | dose: 25.0 mg/kg/injection, schedule: Q04DX002 (ip), vehicle: saline with Tween-80 98 % of control | dose: 50.0 mg/kg/injection, schedule: Q04DX002 (ip), vehicle: saline with Tween-80 98 % of control

Cc1cc(C(=O)O)ccc1Cl
inactive: [1] 101 % of control | [2] 101 % of control | [3] 103 % of control

CCc1c(Cl)nc(N)nc1Cl
inactive: dose: 100.0 mg/kg/injection, schedule: Q01DX Z (ip), vehicle: methylcellulose (MC) 95 % of control | dose: 200.0 mg/kg/injection, schedule: Q01DX Z (ip), vehicle: methylcellulose (MC) 89 % of control

CN(C)c1ccc(/C=N/NC(=S)Nc2ccccc2)cc1
inactive: [19] 109 % of control | [22] 98 % of control | [25] 94 % of control

COc1ccc(/C=N/NC(=O)c2ccc(N)cc2)cc1
inactive: [20] 106 % of control | [23] 100 % of control | [26] 95 % of control

Nc1ncnc(N)c1NC(=O)c1ccc(OCCc2ccccc2)c(Cl)c1
inactive: [4] 106 % of control | [8] 96 % of control | [12] 102 % of control

NC(N)=NC(N)=Nc1cccc(Cl)c1
inactive: dose: 25.0 mg/kg/injection, schedule: Q01DX009 (ip), vehicle: Klucel (hydroxypropylcellulose) (HPC) 108 % of control and 88 % of control | dose: 50.0 mg/kg/injection, schedule: Q01DX009 (ip), vehicle: Klucel (hydroxypropylcellulose) (HPC) 94 % of control and 97 % of control | dose: 100.0 mg/kg/injection, schedule: Q01DX001 (ip), vehicle: Klucel (hydroxypropylcellulose) (HPC) 93 % of control | [21] 105 % of control | dose: 200.0 mg/kg/injection, schedule: Q01DX001 (ip), vehicle: Klucel (hydroxypropylcellulose) (HPC) 103 % of control

CN1C(=O)CCC1=O
inactive: [7] 103 % of control | [11] 98 % of control | [15] 98 % of control

c1ccc(-c2csc(-c3nc(-c4ccccc4)cs3)n2)cc1
inactive: [21] 90 % of control | [24] 95 % of control | [27] 102 % of control

CC1(C)N=C(N)N=C(N)N1c1ccc(OCCCNC(=O)Nc2ccc(S(=O)(=O)F)cc2)c(Cl)c1
inactive: dose: 18.75 mg/kg/injection, schedule: Q04DX003 (ip), vehicle: saline with Tween-80 106 % of control | dose: 37.5 mg/kg/injection, schedule: Q04DX003 (ip), vehicle: saline with Tween-80 104 % of control | dose: 50.0 mg/kg/injection, schedule: Q01DX004 (ip), vehicle: saline 111 % of control | dose: 75.0 mg/kg/injection, schedule: Q04DX003 (ip), vehicle: saline with Tween-80 103 % of control | dose: 100.0 mg/kg/injection, schedule: Q01DX004 (ip), vehicle: saline 100 % of control
